Test results from ChEMBL document CHEMBL4622859, “Discovery of stereospecific cytotoxicity of (8R,8'R)-trans-arctigenin against insect cells and structure-activity relationship on aromatic ring” (Bioorg Med Chem Lett, 2020).
Active and inactive are the calls of the source. The rule behind the calls is not given here.

What was measured:
[1] = Cytotoxicity against Spodoptera frugiperda Sf9 cells assessed as reduction in cell viability; format: cell-based
[2] = Cytotoxicity against Aedes albopictus NIAS-AeAl-2 cells assessed as reduction in cell viability; format: functional, cell-based
HL-60 = assay: Cytotoxicity against human HL60 cells assessed as reduction in cell viability; format: functional, cell-based
[3] = Effect on 28s ribosomal RNA expression in Spodoptera frugiperda Sf9 cells; format: functional
Sf9 = assay: Induction of DNA degradation in Spodoptera frugiperda Sf9 cells by DNA ladder assay; format: functional, cell-based

Structure (SMILES): COc1ccc(C[C@H]2COC(=O)[C@@H]2Cc2ccc(C(C)(C)C)cc2)cc1OC
- IC50 [1]: 17 µM

Structure (SMILES): Cc1ccc(C[C@H]2COC(=O)[C@@H]2Cc2ccc(I)cc2)cc1
- IC50 [1]: 20 µM

Structure (SMILES): COc1ccc(C[C@H]2COC(=O)[C@@H]2Cc2ccc(Cl)cc2)cc1OC
- IC50 [2]: 2.3 µM
- IC50 [1]: 10 µM

Structure (SMILES): COc1ccc(C[C@H]2COC(=O)[C@@H]2Cc2cccc3c2OCO3)cc1OC
- IC50 [1]: 46 µM

Structure (SMILES): Cc1cccc(C[C@H]2COC(=O)[C@@H]2Cc2ccc(I)cc2)c1
- IC50 [1]: 24 µM

Structure (SMILES): O=C1OC[C@H](Cc2ccc(F)cc2)[C@H]1Cc1ccc(I)cc1
- IC50 [1]: 22 µM

Structure (SMILES): COc1ccc(C[C@H]2COC(=S)[C@@H]2Cc2ccc3c(c2)OCO3)cc1OC
- IC50 [1]: 7.2 µM

Structure (SMILES): COc1ccc(C[C@H]2COC(=O)[C@@H]2Cc2ccc(C)c(C)c2)cc1OC
- IC50 [1]: 9.3 µM

Structure (SMILES): COc1ccc(C[C@H]2COC(=O)[C@@H]2Cc2ccc(I)cc2)cc1OC
- IC50 [2]: 2.9 µM
- IC50 [1]: 6.3 µM

Structure (SMILES): COc1ccc(C[C@@H]2COC(=O)[C@H]2Cc2ccc(I)cc2)cc1OC
- IC50 [1]: 25 µM

Structure (SMILES): O=C1OC[C@H](Cc2ccccc2)[C@H]1Cc1ccc(I)cc1
- IC50 [1]: 24 µM

Structure (SMILES): COc1ccc(C[C@H]2COC(=O)[C@@H]2Cc2cccc(Cl)c2)cc1OC
- IC50 [1]: 17 µM

Structure (SMILES): O=C1OC[C@H](Cc2cccc(O)c2)[C@H]1Cc1ccc(I)cc1
- IC50 [1]: 18 µM

Structure (SMILES): COc1ccc(C[C@H]2COC(=S)[C@@H]2Cc2cc(F)c(F)c(F)c2)cc1OC
- IC50 [2]: 15 µM
- IC50 [1]: 22 µM

Structure (SMILES): COc1cc(C[C@@H]2C(=O)OC[C@@H]2Cc2ccc(OC)c(OC)c2)ccc1O
- IC50 [2]: 6.3 µM
- IC50 (HL-60): 8.5 µM
- IC50 [1]: 13 µM

Structure (SMILES): COc1ccc(C[C@H]2COC(=O)[C@@H]2Cc2ccc(C)cc2)cc1OC
- IC50 [2]: 3.5 µM
- IC50 [1]: 11 µM

Structure (SMILES): COc1ccc(C[C@H]2COC(=O)[C@@H]2Cc2ccc(F)c(F)c2)cc1OC
- IC50 [2]: 13 µM
- IC50 [1]: 64 µM

Structure (SMILES): O=C1OC[C@H](Cc2ccc3c(c2)OCO3)[C@H]1Cc1ccc(I)cc1
- IC50 [1]: 12 µM

Structure (SMILES): COc1ccc(C[C@H]2COC(=O)[C@@H]2Cc2ccc(I)cc2)cc1O
- IC50 [1]: 21 µM

Structure (SMILES): COc1ccc(C[C@H]2COC(=O)[C@@H]2Cc2ccccc2O)cc1OC
- IC50 [2]: 17 µM
- IC50 [1]: 54 µM

Structure (SMILES): COc1ccc(C[C@H]2COC(=O)[C@@H]2Cc2ccc(C(F)(F)F)cc2)cc1OC
- IC50 [2]: 10 µM
- IC50 [1]: 20 µM

Structure (SMILES): COc1ccc(C[C@H]2COC(=O)[C@@H]2Cc2ccc(F)cc2)cc1OC
- IC50 [2]: 8.3 µM
- IC50 [1]: 28 µM

Structure (SMILES): COc1ccc(C[C@H]2COC(=O)[C@@H]2Cc2ccccc2C(F)(F)F)cc1OC
- IC50 [1]: 25 µM

Structure (SMILES): COc1ccc(C[C@H]2COC(=O)[C@@H]2Cc2ccc(O)c(C)c2)cc1OC
- IC50 [1]: 11 µM

Structure (SMILES): O=C1OC[C@H](Cc2ccc3c(c2)OCCO3)[C@H]1Cc1ccc(I)cc1
- IC50 [1]: 10 µM

Structure (SMILES): COc1ccc(C[C@H]2COC(=O)[C@@H]2Cc2cc(F)c(F)c(F)c2)cc1OC
- IC50 [1]: 44 µM

Structure (SMILES): COc1ccc(C[C@H]2COC(=O)[C@@H]2Cc2cccc(C)c2)cc1OC
- IC50 [1]: 12 µM

Structure (SMILES): COc1cccc(C[C@H]2C(=O)OC[C@@H]2Cc2ccc(OC)c(OC)c2)c1
- IC50 [1]: 17 µM

Structure (SMILES): COc1ccc(C[C@H]2COC(=O)[C@@H]2Cc2ccc3c(c2)OCO3)cc1OC [(-)-KUSUNOKININ]
- IC50 [2]: 2.7 µM
- IC50 [1]: 8.2 µM

Structure (SMILES): COc1ccc(C[C@H]2COC(=O)[C@@H]2Cc2ccccc2F)cc1OC
- IC50 [1]: 43 µM

Structure (SMILES): COc1ccc(C[C@H]2COC(=O)[C@@H]2Cc2ccc(Br)cc2)cc1OC
- IC50 [1]: 9.1 µM

Structure (SMILES): COc1ccc(C[C@H]2COC(=O)[C@@H]2Cc2ccc3c(c2)OCCO3)cc1OC
- IC50 [1]: 15 µM

Structure (SMILES): O=C1OC[C@H](Cc2ccc(Cl)cc2)[C@H]1Cc1ccc(I)cc1
- IC50 [1]: 18 µM

Structure (SMILES): O=C1OC[C@H](Cc2cccc(F)c2)[C@H]1Cc1ccc(I)cc1
- IC50 [1]: 22 µM

Structure (SMILES): COc1cccc(C[C@H]2COC(=O)[C@@H]2Cc2ccc(I)cc2)c1
- IC50 [1]: 15 µM

Structure (SMILES): COc1cc(C[C@@H]2C(=O)OC[C@H]2Cc2ccc(OC)c(OC)c2)ccc1O
- Activity [3]: Active
- IC50 [2]: 28 µM
- IC50 (HL-60): 23 µM
- IC50 [1]: 80 µM

Structure (SMILES): COc1cc(C[C@H]2C(=O)OC[C@@H]2Cc2ccc(OC)c(OC)c2)ccc1O [ARCTIGENIN]
- Activity [3]: Active
- Activity (Sf9): inactive
- IC50 [2]: 0.73 µM
- IC50 (HL-60): 13 µM
- IC50 [1]: 6.7 µM

Structure (SMILES): COc1cc(C[C@H]2COC(=O)[C@@H]2Cc2ccc(I)cc2)ccc1O
- IC50 [1]: 19 µM

Structure (SMILES): COc1ccc(C[C@H]2COC(=S)[C@@H]2Cc2ccccc2C)cc1OC
- IC50 [1]: 19 µM

Structure (SMILES): Cc1ccccc1C[C@H]1COC(=O)[C@@H]1Cc1ccc(I)cc1
- IC50 [1]: 21 µM

Structure (SMILES): CCc1ccc(C[C@H]2C(=O)OC[C@@H]2Cc2ccc(OC)c(OC)c2)cc1
- IC50 [1]: 17 µM

Structure (SMILES): COc1ccc(C[C@H]2C(=O)OC[C@@H]2Cc2ccc(OC)c(OC)c2)cc1O
- IC50 [1]: 19 µM

Structure (SMILES): COc1ccc(C[C@@H]2COC(=O)[C@H]2Cc2ccc(O)cc2)cc1OC
- IC50 [1]: 29 µM

Structure (SMILES): O=C1OC[C@H](Cc2ccccc2O)[C@H]1Cc1ccc(I)cc1
- IC50 [1]: 18 µM

Structure (SMILES): COc1ccc(C[C@@H]2COC(=O)[C@H]2Cc2ccc(C)cc2)cc1OC
- IC50 [1]: 42 µM

Structure (SMILES): O=C1OC[C@H](Cc2ccc(C(F)(F)F)cc2)[C@H]1Cc1ccc(I)cc1
- IC50 [1]: 15 µM

Structure (SMILES): COc1ccc(C[C@@H]2COC(=O)[C@H]2Cc2ccc3c(c2)OCO3)cc1OC
- IC50 [1]: 41 µM

Structure (SMILES): COc1ccc(C[C@H]2COC(=O)[C@@H]2Cc2cccc(C(F)(F)F)c2)cc1OC
- IC50 [1]: 19 µM

Structure (SMILES): COc1ccc(C[C@H]2COC(=O)[C@@H]2Cc2cccc(O)c2)cc1OC
- IC50 [1]: 22 µM

Structure (SMILES): COc1ccc(C[C@H]2COC(=O)[C@@H]2Cc2ccccc2)cc1OC
- IC50 [1]: 19 µM

Structure (SMILES): COc1ccc(C[C@H]2COC(=O)[C@@H]2Cc2cccc(I)c2)cc1OC
- IC50 [1]: 5.4 µM

Structure (SMILES): O=C1OC[C@H](Cc2cccc(C(F)(F)F)c2)[C@H]1Cc1ccc(I)cc1
- IC50 [1]: 19 µM

Structure (SMILES): COc1ccc(C[C@H]2COC(=O)[C@@H]2Cc2ccc(OC)c(OC)c2)cc1OC
- IC50 [1]: 15 µM

Structure (SMILES): COc1ccc(C[C@H]2COC(=O)[C@@H]2Cc2ccccc2C)cc1OC
- IC50 [1]: 28 µM

Structure (SMILES): COc1ccc(C[C@H]2COC(=O)[C@@H]2Cc2ccccc2I)cc1OC
- IC50 [1]: 18 µM

Structure (SMILES): COc1ccc(C[C@H]2COC(=O)[C@@H]2Cc2ccc(I)cc2)cc1
- IC50 [1]: 21 µM

Structure (SMILES): O=C1OC[C@H](Cc2ccccc2Cl)[C@H]1Cc1ccc(I)cc1
- IC50 [1]: 21 µM

Structure (SMILES): COc1ccc(C[C@@H]2C(=O)OC[C@H]2Cc2ccc(OC)c(OC)c2)cc1
- IC50 [1]: 47 µM

Structure (SMILES): COc1ccccc1C[C@H]1COC(=O)[C@@H]1Cc1ccc(I)cc1
- IC50 [1]: 22 µM

Structure (SMILES): COc1ccc(C[C@H]2COC(=S)[C@@H]2Cc2ccc(I)cc2)cc1OC
- IC50 [2]: 2.4 µM
- IC50 [1]: 4.7 µM

Structure (SMILES): O=C1OC[C@H](Cc2ccccc2F)[C@H]1Cc1ccc(I)cc1
- IC50 [1]: 20 µM

Structure (SMILES): COc1ccc(C[C@H]2COC(=O)[C@@H]2Cc2ccc(O)c(O)c2)cc1OC
- IC50 [1]: 10 µM

Structure (SMILES): COc1ccc(C[C@H]2COC(=O)[C@@H]2Cc2cc(OC)c(O)c(OC)c2)cc1OC
- IC50 [1]: 9.1 µM

Structure (SMILES): COc1ccc(C[C@H]2COC(=O)[C@@H]2Cc2ccc(O)cc2)cc1OC
- IC50 [2]: 1 µM
- IC50 [1]: 9.9 µM

Structure (SMILES): COc1ccc(C[C@H]2COC(=O)[C@@H]2Cc2ccccc2Cl)cc1OC
- IC50 [1]: 24 µM

Structure (SMILES): COc1cc(C[C@H]2C(=O)OC[C@H]2Cc2ccc(OC)c(OC)c2)ccc1O
- IC50 [2]: 57 µM
- IC50 (HL-60): 13 µM
- IC50 [1]: > 100 µM

Structure (SMILES): COc1ccc(C[C@H]2C(=O)OC[C@@H]2Cc2ccc(OC)c(OC)c2)cc1
- IC50 [2]: 4.3 µM
- IC50 [1]: 11 µM

Structure (SMILES): COc1ccc(C[C@@H]2COC(=O)[C@H]2Cc2ccc(Cl)cc2)cc1OC
- IC50 [1]: 40 µM

Structure (SMILES): COc1ccccc1C[C@H]1C(=O)OC[C@@H]1Cc1ccc(OC)c(OC)c1
- IC50 [1]: 24 µM

Structure (SMILES): O=C1OC[C@H](Cc2cccc(Cl)c2)[C@H]1Cc1ccc(I)cc1
- IC50 [1]: 27 µM

Structure (SMILES): COc1ccc(C[C@H]2COC(=O)[C@@H]2Cc2ccc(Cl)c(Cl)c2)cc1OC
- IC50 [1]: 25 µM

Structure (SMILES): COc1ccc(C[C@H]2COC(=O)[C@@H]2Cc2cccc(F)c2)cc1OC
- IC50 [1]: 23 µM

Structure (SMILES): O=C1OC[C@H](Cc2ccc(O)cc2)[C@H]1Cc1ccc(I)cc1
- IC50 [1]: 21 µM

Structure (SMILES): O=C1OC[C@H](Cc2ccccc2C(F)(F)F)[C@H]1Cc1ccc(I)cc1
- IC50 [1]: 24 µM
